Structures are written as SMILES.

This data set addresses T1, L-aspartate-α-decarboxylase (Escherichia coli, UniProt P0A790).
T1 construct: expressed in transfected cells; host or cells: E. coli W3110 transformed with pIF309 = strain NS3291 (ATCC 98675), whole cells
Briefly: Activity towards D/L-glutamate and D/L-alanine, D/L-aspartate as control (Example 8). The following applies: racemate substrate, pH 7.0. The data set is classed as biochemical, E. coli K12. On the procedure:
D/L-aspartate was run as a control.
Substrates were prepared by dissolving solid amino acid racemate in approximately 75 ml deionized H2 O and adjusting the pH to 7.0 with 10N NaOH. The volume was then brought to 100 ml with deionized H2 O. The cells used were stored frozen for about 1 month and then thawed and stored in a refrigerator for about 1 month prior to running the experiments.
The reaction was run the same as described in the prior Examples. Samples of supernatant fluid, approximately 0.20 ml, were removed over time, centrifuged and stored frozen before analysis by HPLC as described in the prior Examples.

For `N[C@H](CCC(=O)O)C(=O)O` [D-Glu], the “concentration in supernatant fluid” value is, setting by setting: (0 hr) 29.440 mg/mL; (3.5 hr) 29.010 mg/mL; (8.5 hr) 29.520 mg/mL; (24 hr) 29.350 mg/mL; (55 hr) 29.840 mg/mL. Also, the percent remaining was 98.539% (3.5 hr), 100.27% (8.5 hr), 99.694% (24 hr) and 101.36% (55 hr).

Turning to `C[C@@H](N)C(=O)O` [D-Ala], the “concentration in supernatant fluid” value (0 hr) is 19.190 mg/mL; the “concentration in supernatant fluid” value (3.5 hr) turned out to be 18.590 mg/mL; the “concentration in supernatant fluid” value (8.5 hr) stood at 18.370 mg/mL; the “concentration in supernatant fluid” value (24 hr) was determined as 17.930 mg/mL; the “concentration in supernatant fluid” value (55 hr) amounted to 17.580 mg/mL. For the same compound, the percent remaining turned out to be 96.873% (3.5 hr), 95.727% (8.5 hr), 93.434% (24 hr) and 91.610% (55 hr).

On to `C[C@H](N)C(=O)O` [L-Ala], for which the “concentration in supernatant fluid” value (0 hr) was 19.320 mg/mL; the “concentration in supernatant fluid” value (3.5 hr) stood at 18.960 mg/mL; the “concentration in supernatant fluid” value (8.5 hr) was 18.730 mg/mL; the “concentration in supernatant fluid” value (24 hr) is 18.320 mg/mL; the “concentration in supernatant fluid” value (55 hr) was 17.830 mg/mL. The percent remaining is, setting by setting: (3.5 hr) 98.137%; (8.5 hr) 96.946%; (24 hr) 94.824%; (55 hr) 92.288%.

As to `N[C@@H](CCC(=O)O)C(=O)O` [L-Glu], the “concentration in supernatant fluid” value (0 hr) came out at 29.350 mg/mL; the “concentration in supernatant fluid” value (3.5 hr) was 28.400 mg/mL; the “concentration in supernatant fluid” value (8.5 hr) was 28.740 mg/mL; the “concentration in supernatant fluid” value (24 hr) was 28.200 mg/mL; the “concentration in supernatant fluid” value (55 hr) was determined as 28.000 mg/mL. Further, the percent remaining came out at 96.763% (3.5 hr), 97.922% (8.5 hr), 96.082% (24 hr) and 95.400% (55 hr).

Values taken from US5834259A, “Process and composition for preparing D-aspartic acid” (Monsanto Company, priority 1996, dated 1998).
